Measured values from patent US20250302862A1, “SMALL RNA DRUG FOR INHIBITING ACTIVITY OF CANCER CELLS” (Institute of Basic Medical Sciences Chinese Academy of …, priority 2022, published 2025).

Tests used:
[1] = system: primary lung cancer Kras^LSL-G12Dp53^fl/fl (KP) mouse model; test: Transcriptome sequencing of lung tissue, pathway clustering of differentially expressed genes; assay type: in vivo; conditions: KP mouse lung tissue after 30 days of dosing, metacore pathway clustering, vs NC group
Text: The mouse model of primary lung cancer was Kras^LSL-G12Dp53^fl/fl (KP). Mice were weighed and assigned to the NC group and HQi-sRNA-2 group randomly. The NC group was the negative control, in which a sphingosine(d18:1)-NC-sRNA herbal medicine delivery system was constructed from NC-sRNA. The HQi-sRNA-2 group was the experimental group, in which a sphingosine(d18:1)-HQi-sRNA-2 herbal medicine delivery system was constructed from HQi-sRNA-2. The herbal medicine delivery system was constructed by heating and mixing 10 nmol of sRNA, 100 ug of sphingosine(d18:1) and 300 ul of sterile enzyme-free water in a water bath at 90° C. for 15 minutes. Mouse lung tissue was collected after 30 days of dosing, and the total RNA was extracted and subjected to non-strand-specific transcriptome sequencing. The differentially expressed genes in the experimental group and the control group were analyzed and calculated by a bioinformatics software, and the biological pathways in which the differentially expressed genes mainly functioned were analyzed by clustering using the metacore database. The pathways of the differentially expressed genes were visualized by the visualization software package ggplot2.
(§1) The mouse model of primary lung cancer was Kras^LSL-G12Dp53^fl/fl (KP). Mice were weighed and assigned to the NC group and MDM-sRNA-39 group randomly. […] The differentially expressed genes in the experimental group and the control group were analyzed and calculated by a bioinformatics software, and the biological pathways in which the differentially expressed genes mainly functioned were analyzed by clustering using the metacore database. […]
as §1, with “(KP).” for “(KP). Mice were weighed and assigned to the NC group and MDM-sRNA-39 group randomly.”

H460 cells = test: Cell migration (scratch assay, Transwell); assay type: cell-based, human; conditions: 100 nmol/L, 48 h
Experimental: Method 1: H460 cells with a cell density of more than 90% in 10 cm^2 dishes were plated in 12-well plates using serum-free medium according to the cell growth rate. After 12 h, 200 uL pipette tips were used to draw straight lines in the wells. The floating cells were washed away and transfection was performed, and the groups (three wells per group, two lines per well) were divided as follows: • blank control group: 200 uL of opti-MEM per well • negative control group (NC group) and experimental group: • A. 100 uL of opti-MEM and 2 uL of iMax were mixed well for 5 min • B. 100 uL of opti-MEM and 5 uL of small RNA (final concentration 100 nmol/L) were mixed well • C. solution A and solution B were mixed well and let stand for 15 min, and then was added to each well at a 200 uL system • Note: 100 uL of nuclease-free water was added to 2 nmol of small RNA dry powder for dissolution at a storage concentration of 20 umol/L
After 48 h, the supernatant was discarded and images were taken under a microscope.
Method 2: H460 cells with a cell density of more than 90% in 10 cm^2 dishes were digested and then resuspended with 1 mL of serum-free medium and counted. 100,000 cells (100 uL) were plated in the upper chamber, and complete medium with 10% FBS was added to the lower chamber of each Transwell (migration chamber). […]
(§2) 1) H460 cells with a cell density of more than 90% in 10 cm^2 dishes were digested and then resuspended with 1 mL of serum-free medium and counted. […]
as §2

Substance | functions of genes down-regulated at transcriptional level [1] | cell migration (H460 cells)
HQi-sRNA-2: small RNA derived from Scutellaria baicalensis, sequence AUGGUUCGAUUCCGGAGAGGG (listed as RNA, chemistry not given here) | mainly clustered in oncology, immunology and other related biological pathways | inhibits
MDM-sRNA-163: small RNA derived from Maytenus hookeri, sequence UGACUCUAGUCCGACUUUGUGAAAUGACU (listed as RNA, chemistry not given here) | mainly clustered in oncology, immunology, and other related biological pathways | inhibits
MDM-sRNA-39: small RNA derived from Maytenus hookeri, sequence GGGAUUGUAGUUCAAUUGGUCAGAGCACC (listed as RNA, chemistry not given here) | mainly clustered in oncology, immunology and other related biological pathways | inhibits
